Assay results: PubChem BioAssay AID2060507 (Molecular Pharmacology Branch, DTP, NCI, 2025)
pIC50: −log10 of the molar value.

System: 519858-162-T-J1-PDC complex spheroid viability
Assay: Anticancer human tumor 519858-162-T-J1-PDC patient-derived colon adenocarcinoma cell line growth inhibition [GQUAD]
Conditions: for pIC50: curve of first compound; for viability, T/C: stronger effect = lower value
Procedure, shortened: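 Viability of tumor cells grown as complex spheroids with endothelial and stromal cells, exposed to drug combinations. Top concentration at or near clinical Cmax (else 10 microM), diluted in half-log increments.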

[1] = second compound 0.0316 µM, first compound 0.0316 µM
[2] = second compound 0.0316 µM, first compound 0.1 µM
[3] = second compound 0.0316 µM, first compound 0.316 µM
[4] = second compound 0.0316 µM, first compound 1 µM
[5] = second compound 0.0316 µM, first compound 3.16 µM
[6] = second compound 0.0316 µM, first compound 10 µM
[7] = second compound 0.1 µM, first compound 0.0316 µM
[8] = second compound 0.1 µM, first compound 0.1 µM
[9] = second compound 0.1 µM, first compound 0.316 µM
[10] = second compound 0.1 µM, first compound 1 µM
[11] = second compound 0.1 µM, first compound 3.16 µM
[12] = second compound 0.1 µM, first compound 10 µM
[13] = second compound 0.316 µM, first compound 0.0316 µM
[14] = second compound 0.316 µM, first compound 0.1 µM
[15] = second compound 0.316 µM, first compound 0.316 µM
[16] = second compound 0.316 µM, first compound 1 µM
[17] = second compound 0.316 µM, first compound 3.16 µM
[18] = second compound 0.316 µM, first compound 10 µM
[19] = second compound 1 µM, first compound 0.0316 µM
[20] = second compound 1 µM, first compound 0.1 µM
[21] = second compound 1 µM, first compound 0.316 µM
[22] = second compound 1 µM, first compound 1 µM
[23] = second compound 1 µM, first compound 3.16 µM
[24] = second compound 1 µM, first compound 10 µM
[25] = second compound 3.16 µM, first compound 0.0316 µM
[26] = second compound 3.16 µM, first compound 0.1 µM
[27] = second compound 3.16 µM, first compound 0.316 µM
[28] = second compound 3.16 µM, first compound 1 µM
[29] = second compound 3.16 µM, first compound 3.16 µM
[30] = second compound 3.16 µM, first compound 10 µM
[31] = second compound 10 µM, first compound 0.0316 µM
[32] = second compound 10 µM, first compound 0.1 µM
[33] = second compound 10 µM, first compound 0.316 µM
[34] = second compound 10 µM, first compound 1 µM
[35] = second compound 10 µM, first compound 3.16 µM
[36] = second compound 10 µM, first compound 10 µM
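For viability, T/C in this document: 100% = DMSO vehicle control viability.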

`COc1cccc2c1C(=O)c1c(O)c3c(c(O)c1C2=O)CC(O)(C(=O)CO)CC3OC1CC(N)C(O)C(C)O1` (stereo unspecified) + Cc1cnc(CNC(=O)c2c(=O)c3ccc(N4CCCN(C)CC4)nc3n3c2sc2ccccc23)cn1 showed a pIC50 (second compound 0.0316 µM) of under 5.00, a pIC50 (second compound 0.1 µM) of under 5.00 and a pIC50 (second compound 0.316 µM) of under 5.00. The pIC50 (second compound 1 µM) was under 5.00, the pIC50 (second compound 3.16 µM) was 6.24 and the pIC50 (second compound 10 µM) was over 7.50. The viability, T/C [1] was 105%, the viability, T/C [2] was 85.3% and the viability, T/C [3] was 63.1%. It also gave a viability, T/C [4] of 81.8%, a viability, T/C [5] of 71.5% and a viability, T/C [6] of 59.9%. It also gave a viability, T/C [7] of 108%, a viability, T/C [8] of 80.2% and a viability, T/C [9] of 91%. For the same compound, the viability, T/C [10] was 79.1%, the viability, T/C [11] was 67% and the viability, T/C [12] was 58.8%. It also gave a viability, T/C [13] of 89.9%, a viability, T/C [14] of 51.9% and a viability, T/C [15] of 80.7%. The viability, T/C [16] was 44.4%, the viability, T/C [17] was 50.6% and the viability, T/C [18] was 74.3%. The viability, T/C [19] was 82.2%, the viability, T/C [20] was 44.3% and the viability, T/C [21] was 88.7%. The viability, T/C [22] was 53.4%, the viability, T/C [23] was 47.7% and the viability, T/C [24] was 57.6%. The viability, T/C [25] was 55.9%, the viability, T/C [26] was 61.1% and the viability, T/C [27] was 55%. The viability, T/C [28] was 33.6%, the viability, T/C [29] was 55.7% and the viability, T/C [30] was 47.1%. It also gave a viability, T/C [31] of 36%, a viability, T/C [32] of 52.4% and a viability, T/C [33] of 43.9%. It also gave a viability, T/C [34] of 39.5%, a viability, T/C [35] of 41.4% and a viability, T/C [36] of 31.8%.

For `O=c1[nH]cc(F)c(=O)[nH]1` + Cc1[nH]c2ccc(F)cc2c1-c1nc2c3cccnc3c3ncccc3c2[nH]1, the pIC50 (second compound 0.0316 µM) was under 5.00, the pIC50 (second compound 0.1 µM) was under 5.00 and the pIC50 (second compound 0.316 µM) was under 5.00. For the same compound, the pIC50 (second compound 1 µM) was under 5.00, the pIC50 (second compound 3.16 µM) was under 5.00 and the pIC50 (second compound 10 µM) was under 5.00. The viability, T/C [1] was 138%, the viability, T/C [2] was 85.8% and the viability, T/C [3] was 80.8%. For the same compound, the viability, T/C [4] was 98.3%, the viability, T/C [5] was 81.7% and the viability, T/C [6] was 87.3%. It also gave a viability, T/C [7] of 116%, a viability, T/C [8] of 103% and a viability, T/C [9] of 94%. It also gave a viability, T/C [10] of 98.6%, a viability, T/C [11] of 70.6% and a viability, T/C [12] of 84.9%. The viability, T/C [13] was 86%, the viability, T/C [14] was 103% and the viability, T/C [15] was 87.4%. The viability, T/C [16] was 83.7%, the viability, T/C [17] was 86.5% and the viability, T/C [18] was 74.9%. It also gave a viability, T/C [19] of 101%, a viability, T/C [20] of 83.2% and a viability, T/C [21] of 75.8%. It also gave a viability, T/C [22] of 65.7%, a viability, T/C [23] of 60.6% and a viability, T/C [24] of 89.5%. The viability, T/C [25] was 57%, the viability, T/C [26] was 69% and the viability, T/C [27] was 65.7%. For the same compound, the viability, T/C [28] was 75.5%, the viability, T/C [29] was 71.3% and the viability, T/C [30] was 63%. The viability, T/C [31] was 81%, the viability, T/C [32] was 78.1% and the viability, T/C [33] was 59.6%. For the same compound, the viability, T/C [34] was 71.9%, the viability, T/C [35] was 83.1% and the viability, T/C [36] was 55.6%.

`O=C(c1cc(Cc2n[nH]c(=O)c3ccccc23)ccc1F)N1CCN(C(=O)C2CC2)CC1` + Cc1cnc(CNC(=O)c2c(=O)c3ccc(N4CCCN(C)CC4)nc3n3c2sc2ccccc23)cn1 was tested, and the pIC50 (second compound 0.0316 µM) was under 5.00, the pIC50 (second compound 0.1 µM) was under 5.00 and the pIC50 (second compound 0.316 µM) was under 5.00. The pIC50 (second compound 1 µM) was under 5.00, the pIC50 (second compound 3.16 µM) was over 7.50 and the pIC50 (second compound 10 µM) was over 7.50. The viability, T/C [1] was 92.2%, the viability, T/C [2] was 89.5% and the viability, T/C [3] was 89.7%. For the same compound, the viability, T/C [4] was 81.5%, the viability, T/C [5] was 64.2% and the viability, T/C [6] was 74.7%. The viability, T/C [7] was 52.6%, the viability, T/C [8] was 65.7% and the viability, T/C [9] was 65.3%. The viability, T/C [10] was 58.8%, the viability, T/C [11] was 48.3% and the viability, T/C [12] was 74.5%. The viability, T/C [13] was 82.6%, the viability, T/C [14] was 72.4% and the viability, T/C [15] was 50.3%. The viability, T/C [16] was 47.6%, the viability, T/C [17] was 52.9% and the viability, T/C [18] was 60.6%. It also gave a viability, T/C [19] of 68.6%, a viability, T/C [20] of 67.5% and a viability, T/C [21] of 48.3%. For the same compound, the viability, T/C [22] was 64.4%, the viability, T/C [23] was 45.5% and the viability, T/C [24] was 54.6%. For the same compound, the viability, T/C [25] was 60%, the viability, T/C [26] was 31.8% and the viability, T/C [27] was 39.6%. The viability, T/C [28] was 39.2%, the viability, T/C [29] was 47.4% and the viability, T/C [30] was 41.2%. For the same compound, the viability, T/C [31] was 47.9%, the viability, T/C [32] was 46.5% and the viability, T/C [33] was 49.7%. It also gave a viability, T/C [34] of 44.6%, a viability, T/C [35] of 49% and a viability, T/C [36] of 57.2%.
